One may read the IC50 as the concentration that gives 50% inhibition. Low readings indicate greater potency, high ones weaker potency.

Consider 29 compounds from patent US10752612B2, “PLK4 inhibitors” (LUDWIG INSTITUTE FOR CANCER RESEARCH LTD, priority 2015, dated 2020).

The assay addresses T1, human Plk4 kinase domain (aa 2-275) (Homo sapiens, UniProt O00444).
T1 construct: purified 6×His-tagged human Plk4 kinase domain (aa 2-275); 6xHis; made in house; host or cells: E. coli
T1 sequence (O00444 2-275): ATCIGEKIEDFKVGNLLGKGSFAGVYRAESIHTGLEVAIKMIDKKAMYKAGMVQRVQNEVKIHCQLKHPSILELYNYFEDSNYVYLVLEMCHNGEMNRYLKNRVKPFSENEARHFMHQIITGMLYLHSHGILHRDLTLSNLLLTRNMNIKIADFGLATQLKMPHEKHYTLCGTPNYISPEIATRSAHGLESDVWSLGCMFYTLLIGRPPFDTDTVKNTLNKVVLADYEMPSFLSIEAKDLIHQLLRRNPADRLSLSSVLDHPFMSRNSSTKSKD
Kind of assay: Plk4 kinase assay (ADP-Glo). It counts as biochemical. The conditions noted are these: Table 1. A digest of the protocol: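 Enzyme at 2.5-10 nM final, pH 8.0, reacted 4-16 hours at 25° C; ADP generation read by ADP-Glo luminescence. Ki derived from IC50 by Cheng-Prusoff or, for tight binders, Copeland formalism.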
A general note: ADP-Glo first removes unused ATP, then detects ADP through luciferase.

In the case of `COc1c(Nc2cc(C)[nH]n2)nc(Sc2ccc(NC(C)=O)cc2)nc1N1CCN(CCN2CCNCC2)CC1`, the IC50 is < 1 µM.

In the case of `COc1c(Nc2cc(C)[nH]n2)nc(Nc2ccc(S(=O)(=O)Cc3ccccc3)cc2)nc1N1CCN(CCN(C)C)CC1`, the IC50 is < 1 µM.

On to `CCN1CCN(c2nc(Sc3ccc(NC(C)=O)cc3)nc(Nc3cc(C)[nH]n3)c2C)CC1`, for which the IC50 is < 1 µM.

For `COc1c(Nc2cc(C)[nH]n2)nc(Sc2ccc(S(=O)(=O)Cc3ccccc3)cc2)nc1N1CCOC[C@@H]1C`, the IC50 is < 1 µM.

Regarding `Cc1ccc(Sc2nc(Nc3cc(C)[nH]n3)c(C)c(N3CCC(O)CC3)n2)cc1`, the IC50 was < 1 µM.

In the case of `CCOc1c(Nc2cc(C)[nH]n2)nc(Sc2ccc(NC(=O)C3CCCC3)cc2)nc1N1CCN(C(=O)CCN(C)C)CC1`, the IC50 was > 1 µM.

`COc1c(Nc2cc(C)[nH]n2)nc(Sc2ccc(S(=O)(=O)Cc3cccc([N+](=O)[O-])c3)cc2F)nc1N1CCN(CCN(C)C)CC1`: the IC50 was < 1 µM.

With `COc1c(Nc2cc(C)[nH]n2)nc(Sc2ccc(S(=O)(=O)CCO)cc2)nc1N1CCN(CCN(C)C)CC1`, the IC50 is < 1 µM.

On to `COc1c(Nc2cc(C)[nH]n2)nc(Sc2ccc(S(=O)(=O)C3(c4cccc([N+](=O)[O-])c4F)CC3)cc2F)nc1N1CCC(C(N)=O)CC1`, for which the IC50 is < 1 µM.

As to `Cc1cc(Nc2nc(Sc3ccc(NC(=O)C4CC4)cc3)nc(N3CCN(C)C(C)C3)c2C)n[nH]1` (centres unmarked), the IC50 was < 1 µM.

`COc1c(Nc2cc(C)[nH]n2)nc(Sc2ccc(NC(=O)C3CC3)cc2)nc1N1CCOCC1`: the IC50 was < 1 µM.

For the compound `COc1c(Nc2cc(C)[nH]n2)nc(Sc2ccc(S(=O)(=O)C(C)(C)c3c(F)c(F)cc(F)c3F)cc2F)nc1N1CC[C@H](N(C)C)C1`, the IC50 was < 1 µM.

`CCN(C)CCN1CCN(c2nc(Sc3ccc(NC(C)=O)cc3)nc(Nc3cc(C)[nH]n3)c2OC)CC1`: the IC50 was < 1 µM.

In the case of `COc1c(Nc2cc(C)[nH]n2)nc(Sc2cccc(NC(C)=O)c2)nc1N1CCOCC1`, the IC50 is < 1 µM.

`COc1c(Nc2cc(C)[nH]n2)nc(Sc2ccc(NC(=O)C3CC3)cc2)nc1NC(C)C`: the IC50 is < 1 µM.

In turn, `CCOc1c(Nc2cc(C)[nH]n2)nc(Sc2ccc(NC(=O)C3CC3)cc2)nc1N1CCN(CC2CC2)CC1` registered an IC50 of 0.1 to 1 µM.

Take `COc1c(Nc2cc(C)[nH]n2)nc(Sc2ccc(S(=O)(=O)Cc3ccccc3)cc2)nc1N1CCN(CCN2CCC(O)CC2)CC1`: the IC50 is < 1 µM.

In the case of `COc1c(Nc2cc(C)[nH]n2)nc(Sc2ccc(S(=O)(=O)C(C)(C)c3c(F)c(F)cc(F)c3F)cc2F)nc1N1CCC(NC(C)=O)C1` (centres unmarked), the IC50 was < 1 µM.

On to `CC(=O)Nc1ccc(Sc2nc(Nc3cc(C)[nH]n3)c(C)c(N3CCOC[C@@H]3C)n2)cc1`, for which the IC50 was < 1 µM.

`COCC(=O)N1CCN(c2nc(SC)nc(Nc3cc(C)[nH]n3)c2C)CC1`: the concentration for half-maximal inhibition (IC50) is < 1 µM.

On to `COc1c(Nc2cc(C)[nH]n2)nc(Sc2ccc(S(=O)(=O)Cc3cccc([N+](=O)[O-])c3F)cc2F)nc1N1CCC(CC(N)=O)CC1`, for which the IC50 was < 1 µM.

Turning to `COc1c(Nc2cc(C)[nH]n2)nc(Sc2ccc(S(=O)(=O)C3(c4cccc([N+](=O)[O-])c4F)CC3)cc2F)nc1N1CCC(CN(C)C)CC1`, the IC50 was < 1 µM.

For `COc1c(Nc2cc(C)[nH]n2)nc(Sc2ccc(NC(=O)C3CC3)cc2)nc1N1CCN(CC2CC2)CC1`, the IC50 is < 1 µM.

With `CCN(CC)c1nc(Sc2ccc(NC(C)=O)cc2)nc(Nc2cc(C)[nH]n2)c1OC`, the IC50 is < 1 µM.

Turning to `COc1ccc(CS(=O)(=O)c2ccc(Sc3nc(Nc4cc(C)[nH]n4)c(OC)c(N4CCN(CCN(C)C)CC4)n3)cc2)cc1`, the IC50 is < 1 µM.

Regarding `CCOc1c(Nc2cc(C)[nH]n2)nc(Sc2ccc(S(=O)(=O)Cc3ccccc3)cc2)nc1N1CCNCC1`, the IC50 is > 1 µM.

Turning to `CCOc1c(Nc2cc(C)[nH]n2)nc(Sc2ccc(NC(C)=O)cc2)nc1N1CCC(O)CC1`, the IC50 was < 1 µM.

`CSc1nc(Nc2cc(C)[nH]n2)c(C)c(N2CCN(CCN(C)C)CC2)n1`: the IC50 was < 1 µM.

As to `COc1c(Nc2cc(C)[nH]n2)nc(Sc2ccc(S(=O)(=O)Cc3ccccc3)cc2)nc1N1CCOCC1`, the IC50 is < 1 µM.
